Assay results from ChEMBL document CHEMBL1201862, “PubChem BioAssay data set” (2004).
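Values below derive from 48-hour exposures of cells grown in 96-well plates, with endpoints linearly interpolated between the two concentrations bracketing the appropriate inhibition level. GI50 = concentration required for 50% inhibition of growth.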 Activity calls are given as the source filed them. Rule as the data show it: active = GI50 up to about 1.1 µM and inactive = higher.

Assays:
Experiment in all cases: NCI-60 cell line screen, 48 h
[1] = system: DMS-273
[2] = system: OVCAR-3
[3] = system: COLO 205
[4] = system: UACC-257
[5] = system: SF-268
[6] = system: SNB-78
[7] = system: M19-MEL
[8] = system: NCI-H522
[9] = system: TK-10
[10] = system: IGROV-1
[11] = system: KM-20L2
[12] = system: HT-29
[13] = system: RXF 393
[14] = system: SNB-19
[15] = system: SF-295
[16] = system: M14
[17] = system: SF-539
[18] = system: NCI-H226
[19] = system: LOX IMVI
[20] = system: OVCAR-8
[21] = system: SK-MEL-28
[22] = system: CAKI-1
[23] = system: UACC-62
[24] = system: UO-31
[25] = system: A498
[26] = system: NCI-H460
[27] = system: EKVX
[28] = system: RPMI-8226
[29] = system: DMS-114
[30] = system: KM12
[31] = system: SN12C
[32] = system: LXFL 529
[33] = system: MOLT-4
[34] = system: HCC 2998
[35] = system: RXF 631
[36] = system: XF498
[37] = system: Malme-3M
[38] = system: K562
[39] = system: HOP-62
[40] = system: HCT-15
[41] = system: CCRF-CEM
[42] = system: SK-MEL-2
[43] = system: SK-OV-3
[44] = system: NCI-H23
[45] = system: A549
[46] = system: SK-MEL-5
[47] = system: 786-0
[48] = system: SNB-75
[49] = system: HL-60
[50] = system: SW-620
[51] = system: U-251
[52] = system: HCT-116
[53] = system: SR
[54] = system: ACHN
[55] = system: OVCAR-5
[56] = system: HOP-92
[57] = system: OVCAR-4
[58] = system: DLD-1

CON1C(=O)C2(CCCCC2)C(=O)C12C=CC(C)CC2 (configuration not stated)
GI50 [1]: > 100 µM (inactive) | GI50 [2]: > 100 µM (inactive) | GI50 [3]: > 100 µM (inactive) | GI50 [4]: 69.8 µM (inactive) | GI50 [5]: > 100 µM (inactive) | GI50 [6]: > 100 µM (inactive) | GI50 [7]: > 100 µM (inactive) | GI50 [8]: 95.1 µM (inactive) | GI50 [9]: > 100 µM (inactive) | GI50 [10]: > 100 µM (inactive) | GI50 [11]: > 100 µM (inactive) | GI50 [12]: 62.5 µM (inactive) | GI50 [13]: 30.7 µM (inactive) | GI50 [14]: > 100 µM (inactive) | GI50 [15]: > 100 µM (inactive) | GI50 [16]: > 100 µM (inactive) | GI50 [17]: > 100 µM (inactive) | GI50 [18]: 76.6 µM (inactive) | GI50 [19]: > 100 µM (inactive) | GI50 [20]: > 100 µM (inactive) | GI50 [21]: > 100 µM (inactive) | GI50 [22]: > 100 µM (inactive) | GI50 [23]: > 100 µM (inactive) | GI50 [24]: 47.4 µM (inactive) | GI50 [25]: > 100 µM (inactive) | GI50 [26]: > 100 µM (inactive) | GI50 [27]: 48.2 µM (inactive) | GI50 [28]: 72.3 µM (inactive) | GI50 [29]: 46.7 µM (inactive) | GI50 [30]: > 100 µM (inactive) | GI50 [31]: > 100 µM (inactive) | GI50 [32]: > 100 µM (inactive) | GI50 [33]: 78.9 µM (inactive) | GI50 [34]: > 100 µM (inactive) | GI50 [35]: > 100 µM (inactive) | GI50 [36]: > 100 µM (inactive) | GI50 [37]: > 100 µM (inactive) | GI50 [38]: 85.5 µM (inactive) | GI50 [39]: > 100 µM (inactive) | GI50 [40]: > 100 µM | GI50 [41]: > 100 µM (inactive) | GI50 [42]: > 100 µM (inactive) | GI50 [43]: > 100 µM (inactive) | GI50 [44]: > 100 µM (inactive) | GI50 [45]: > 100 µM (inactive) | GI50 [46]: 38 µM (inactive) | GI50 [47]: > 100 µM (inactive) | GI50 [48]: > 100 µM (inactive) | GI50 [49]: 49.5 µM (inactive) | GI50 [50]: > 100 µM (inactive) | GI50 [51]: > 100 µM (inactive)

O=C(/C=C/c1ccc(O)cc1)OC[C@@H](O)COC1OC(CO)C(O)C(O)C1O (some centres not stated)
GI50 [52]: > 100 µM (inactive) | GI50 [4]: > 100 µM (inactive) | GI50 [6]: > 100 µM (inactive) | GI50 [7]: > 100 µM (inactive) | GI50 [8]: > 100 µM (inactive) | GI50 [9]: > 100 µM (inactive) | GI50 [10]: > 100 µM (inactive) | GI50 [12]: > 100 µM (inactive) | GI50 [13]: > 100 µM (inactive) | GI50 [53]: > 100 µM (inactive) | GI50 [14]: > 100 µM (inactive) | GI50 [15]: > 100 µM (inactive) | GI50 [16]: > 100 µM (inactive) | GI50 [18]: 94.2 µM (inactive) | GI50 [20]: > 100 µM (inactive) | GI50 [21]: > 100 µM (inactive) | GI50 [24]: > 100 µM (inactive) | GI50 [25]: > 100 µM (inactive) | GI50 [26]: > 100 µM (inactive) | GI50 [27]: > 100 µM (inactive) | GI50 [29]: > 100 µM (inactive) | GI50 [30]: > 100 µM (inactive) | GI50 [33]: > 100 µM (inactive) | GI50 [54]: > 100 µM (inactive) | GI50 [35]: > 100 µM (inactive) | GI50 [38]: > 100 µM (inactive) | GI50 [39]: > 100 µM (inactive) | GI50 [41]: > 100 µM (inactive) | GI50 [43]: > 100 µM (inactive) | GI50 [44]: > 100 µM (inactive) | GI50 [45]: > 100 µM (inactive) | GI50 [55]: > 100 µM (inactive) | GI50 [49]: > 100 µM (inactive) | GI50 [56]: > 100 µM (inactive) | GI50 [51]: > 100 µM (inactive)

CS(=O)(=O)NNS(=O)(=O)c1cccc([N+](=O)[O-])c1
GI50 [1]: > 100 µM (inactive) | GI50 [57]: > 100 µM (inactive) | GI50 [3]: > 100 µM (inactive) | GI50 [52]: > 100 µM (inactive) | GI50 [4]: > 100 µM (inactive) | GI50 [7]: > 100 µM (inactive) | GI50 [8]: > 100 µM (inactive) | GI50 [9]: > 100 µM (inactive) | GI50 [10]: > 100 µM (inactive) | GI50 [11]: > 100 µM (inactive) | GI50 [12]: > 100 µM (inactive) | GI50 [13]: > 100 µM (inactive) | GI50 [53]: > 100 µM (inactive) | GI50 [14]: > 100 µM (inactive) | GI50 [15]: > 100 µM (inactive) | GI50 [16]: > 100 µM (inactive) | GI50 [17]: > 100 µM (inactive) | GI50 [18]: > 100 µM (inactive) | GI50 [19]: > 100 µM (inactive) | GI50 [20]: > 100 µM (inactive) | GI50 [22]: > 100 µM (inactive) | GI50 [23]: > 100 µM (inactive) | GI50 [24]: > 100 µM (inactive) | GI50 [25]: > 100 µM (inactive) | GI50 [26]: > 100 µM (inactive) | GI50 [27]: > 100 µM (inactive) | GI50 [58]: > 100 µM (inactive) | GI50 [28]: > 100 µM (inactive) | GI50 [29]: > 100 µM (inactive) | GI50 [30]: > 100 µM (inactive) | GI50 [31]: > 100 µM (inactive) | GI50 [32]: > 100 µM (inactive) | GI50 [33]: > 100 µM (inactive) | GI50 [54]: > 100 µM (inactive) | GI50 [34]: > 100 µM (inactive) | GI50 [35]: > 100 µM (inactive) | GI50 [36]: > 100 µM (inactive) | GI50 [37]: > 100 µM (inactive) | GI50 [38]: > 100 µM (inactive) | GI50 [39]: > 100 µM (inactive) | GI50 [40]: > 100 µM | GI50 [41]: > 100 µM (inactive) | GI50 [42]: > 100 µM (inactive) | GI50 [44]: > 100 µM (inactive) | GI50 [45]: > 100 µM (inactive) | GI50 [46]: > 100 µM (inactive) | GI50 [47]: > 100 µM (inactive) | GI50 [48]: > 100 µM (inactive) | GI50 [49]: > 100 µM (inactive) | GI50 [50]: > 100 µM (inactive) | GI50 [51]: > 100 µM (inactive)
